Source: the kinase profiling compilation of Christmann-Franck et al. (2016)

Experiments:
Experiment in all cases: KINOMEscan competition binding
Settings in all cases: compound 10.0 µM
MAPK8 (human) = MAPK8 (human) (UniProt P45983)
KDR (human) = KDR (human) (UniProt P35968)
MAPK9 (human) = MAPK9 (human) (UniProt P45984)
AKT1 (human) = AKT1 (human) (UniProt P31749)
IKBKE (human) = IKBKE (human) (UniProt Q14164)
HIPK2 (human) = HIPK2 (human) (UniProt Q9H2X6)
CLK4 (human) = CLK4 (human) (UniProt Q9HAZ1)
MATK (human) = MATK (human) (UniProt P42679)
BMX (human) = BMX (human) (UniProt P51813)
[1] = test system: FLT3 (human), P36888 [D835Y]
DYRK1A (human) = DYRK1A (human) (UniProt Q13627)
MAP2K6 (human) = MAP2K6 (human) (UniProt P52564)
Sequence of MAP2K6 (human) (P52564 whole entry, looked up): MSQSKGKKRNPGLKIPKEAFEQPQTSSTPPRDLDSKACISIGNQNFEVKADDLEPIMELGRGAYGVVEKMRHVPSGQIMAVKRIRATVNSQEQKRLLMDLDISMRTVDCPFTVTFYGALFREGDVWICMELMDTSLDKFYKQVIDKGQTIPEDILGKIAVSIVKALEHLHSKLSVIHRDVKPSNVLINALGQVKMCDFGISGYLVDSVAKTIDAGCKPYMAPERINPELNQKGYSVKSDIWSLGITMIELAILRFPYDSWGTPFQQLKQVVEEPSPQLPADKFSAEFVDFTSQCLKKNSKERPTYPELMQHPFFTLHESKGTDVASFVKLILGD

CAMK1D (human) = CAMK1D (human) (UniProt Q8IU85)
MAP3K13 (human) = MAP3K13 (human) (UniProt O43283)
CDKL2 (human) = CDKL2 (human) (UniProt Q92772)
ULK3 (human) = ULK3 (human) (UniProt Q6PHR2)
RIPK4 (human) = RIPK4 (human) (UniProt P57078)
[2] = test system: KIT (human), P10721 [A829P]
LCK (human) = LCK (human) (UniProt P06239)
[3] = test system: EIF2AK4 KD2 (human), Q9P2K8 [S808G]
TLK1 (human) = TLK1 (human) (UniProt Q9UKI8)
Sequence of TLK1 (human) (Q9UKI8 whole entry, looked up): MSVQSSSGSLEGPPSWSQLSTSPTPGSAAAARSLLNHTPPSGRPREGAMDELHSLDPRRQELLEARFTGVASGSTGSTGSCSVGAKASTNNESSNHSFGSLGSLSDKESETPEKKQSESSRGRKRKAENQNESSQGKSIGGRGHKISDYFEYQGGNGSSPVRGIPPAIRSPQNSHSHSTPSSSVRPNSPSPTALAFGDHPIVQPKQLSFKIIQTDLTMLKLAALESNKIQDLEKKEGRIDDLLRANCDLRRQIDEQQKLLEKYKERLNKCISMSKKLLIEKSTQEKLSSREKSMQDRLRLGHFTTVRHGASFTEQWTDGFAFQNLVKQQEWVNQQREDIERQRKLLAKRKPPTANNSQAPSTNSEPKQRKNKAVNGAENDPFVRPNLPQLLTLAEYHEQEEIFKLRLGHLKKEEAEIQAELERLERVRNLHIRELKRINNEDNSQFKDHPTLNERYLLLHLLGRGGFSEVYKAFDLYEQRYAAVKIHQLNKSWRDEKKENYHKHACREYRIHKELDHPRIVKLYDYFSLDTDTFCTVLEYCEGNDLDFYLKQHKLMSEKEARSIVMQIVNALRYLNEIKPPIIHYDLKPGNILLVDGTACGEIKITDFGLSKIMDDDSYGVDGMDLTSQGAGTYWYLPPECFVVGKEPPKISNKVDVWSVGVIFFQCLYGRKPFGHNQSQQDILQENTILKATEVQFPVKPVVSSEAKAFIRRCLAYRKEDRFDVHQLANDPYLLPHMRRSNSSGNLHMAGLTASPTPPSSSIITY

MAP3K15 (human) = MAP3K15 (human) (UniProt Q6ZN16)
TEC (human) = TEC (human) (UniProt P42680)
STK17B (human) = STK17B (human) (UniProt O94768)
SRC (human) = SRC (human) (UniProt P12931)
RPS6KA4 KD2 (human) = RPS6KA4 KD2 (human) (UniProt O75676)
[4] = biological target: JAK2 JH1 catalytic (human) (UniProt O60674)
[5] = test system: PIK3CA (human), P42336 [M1043I]
PRKCE (human) = PRKCE (human) (UniProt Q02156)
Sequence of PRKCE (human) (Q02156 whole entry, looked up): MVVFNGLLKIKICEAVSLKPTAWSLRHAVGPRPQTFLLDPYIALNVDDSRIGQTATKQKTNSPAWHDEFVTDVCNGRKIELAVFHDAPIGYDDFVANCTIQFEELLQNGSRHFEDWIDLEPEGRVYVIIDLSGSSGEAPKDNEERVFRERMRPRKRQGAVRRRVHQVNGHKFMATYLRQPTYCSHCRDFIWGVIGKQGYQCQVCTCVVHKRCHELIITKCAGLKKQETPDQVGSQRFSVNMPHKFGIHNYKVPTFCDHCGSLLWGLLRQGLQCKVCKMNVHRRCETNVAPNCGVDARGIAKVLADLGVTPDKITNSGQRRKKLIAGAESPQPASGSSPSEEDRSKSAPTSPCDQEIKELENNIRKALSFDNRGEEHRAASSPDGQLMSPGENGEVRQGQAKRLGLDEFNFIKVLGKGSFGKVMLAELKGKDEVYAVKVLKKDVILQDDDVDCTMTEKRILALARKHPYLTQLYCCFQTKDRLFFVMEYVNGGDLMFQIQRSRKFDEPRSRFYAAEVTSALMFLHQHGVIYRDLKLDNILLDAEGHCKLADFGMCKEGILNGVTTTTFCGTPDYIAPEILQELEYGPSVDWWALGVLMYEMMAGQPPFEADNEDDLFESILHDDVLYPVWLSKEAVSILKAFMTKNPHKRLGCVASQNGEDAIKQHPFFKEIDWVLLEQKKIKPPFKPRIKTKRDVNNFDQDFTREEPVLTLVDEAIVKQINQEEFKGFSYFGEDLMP

PLK1 (human) = PLK1 (human) (UniProt P53350)
MLTK (human) = MLTK (human) (UniProt Q9NYL2)
BLK (human) = BLK (human) (UniProt P51451)
Sequence of BLK (human) (P51451 whole entry, looked up): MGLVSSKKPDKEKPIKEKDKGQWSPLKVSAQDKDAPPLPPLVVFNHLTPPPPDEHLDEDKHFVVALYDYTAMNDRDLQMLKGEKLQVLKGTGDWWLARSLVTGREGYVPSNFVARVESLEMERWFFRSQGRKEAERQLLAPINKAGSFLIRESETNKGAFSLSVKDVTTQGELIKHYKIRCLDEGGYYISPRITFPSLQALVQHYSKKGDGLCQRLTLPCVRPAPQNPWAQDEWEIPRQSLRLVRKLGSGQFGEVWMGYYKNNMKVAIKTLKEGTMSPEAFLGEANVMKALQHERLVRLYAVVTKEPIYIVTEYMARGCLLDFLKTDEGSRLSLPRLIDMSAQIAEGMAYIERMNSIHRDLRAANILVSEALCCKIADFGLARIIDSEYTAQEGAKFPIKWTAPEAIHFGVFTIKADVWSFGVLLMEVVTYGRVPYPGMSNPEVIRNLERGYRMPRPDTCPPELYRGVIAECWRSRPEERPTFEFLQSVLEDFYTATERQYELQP

[6] = test system: PIK3CA (human), P42336 [H1047L]
FLT4 (human) = FLT4 (human) (UniProt P35916)
RPS6KA6 KD1 (human) = RPS6KA6 KD1 (human) (UniProt Q9UK32)
ROS1 (human) = ROS1 (human) (UniProt P08922)
FGFR4 (human) = FGFR4 (human) (UniProt P22455)
STK32B (human) = STK32B (human) (UniProt Q9NY57)
BTK (human) = BTK (human) (UniProt Q06187)
Sequence of BTK (human) (Q06187 whole entry, looked up): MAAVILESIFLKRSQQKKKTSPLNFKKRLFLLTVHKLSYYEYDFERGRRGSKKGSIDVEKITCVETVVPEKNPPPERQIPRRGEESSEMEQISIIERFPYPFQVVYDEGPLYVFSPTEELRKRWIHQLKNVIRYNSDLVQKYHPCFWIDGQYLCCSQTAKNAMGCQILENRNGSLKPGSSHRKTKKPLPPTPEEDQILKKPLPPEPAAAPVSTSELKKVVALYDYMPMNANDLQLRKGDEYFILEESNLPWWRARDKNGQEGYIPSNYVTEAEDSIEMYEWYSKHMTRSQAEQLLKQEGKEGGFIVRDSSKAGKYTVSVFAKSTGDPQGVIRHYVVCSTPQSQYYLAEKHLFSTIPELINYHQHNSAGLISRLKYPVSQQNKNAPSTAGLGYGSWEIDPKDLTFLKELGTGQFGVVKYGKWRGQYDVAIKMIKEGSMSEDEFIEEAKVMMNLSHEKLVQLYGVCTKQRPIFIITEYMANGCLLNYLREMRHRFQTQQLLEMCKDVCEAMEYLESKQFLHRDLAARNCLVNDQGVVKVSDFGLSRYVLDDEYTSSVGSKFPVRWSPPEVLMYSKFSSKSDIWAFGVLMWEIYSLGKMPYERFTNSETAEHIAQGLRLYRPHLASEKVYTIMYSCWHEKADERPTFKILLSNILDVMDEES

RIPK2 (human) = RIPK2 (human) (UniProt O43353)
Sequence of RIPK2 (human) (O43353 whole entry, looked up): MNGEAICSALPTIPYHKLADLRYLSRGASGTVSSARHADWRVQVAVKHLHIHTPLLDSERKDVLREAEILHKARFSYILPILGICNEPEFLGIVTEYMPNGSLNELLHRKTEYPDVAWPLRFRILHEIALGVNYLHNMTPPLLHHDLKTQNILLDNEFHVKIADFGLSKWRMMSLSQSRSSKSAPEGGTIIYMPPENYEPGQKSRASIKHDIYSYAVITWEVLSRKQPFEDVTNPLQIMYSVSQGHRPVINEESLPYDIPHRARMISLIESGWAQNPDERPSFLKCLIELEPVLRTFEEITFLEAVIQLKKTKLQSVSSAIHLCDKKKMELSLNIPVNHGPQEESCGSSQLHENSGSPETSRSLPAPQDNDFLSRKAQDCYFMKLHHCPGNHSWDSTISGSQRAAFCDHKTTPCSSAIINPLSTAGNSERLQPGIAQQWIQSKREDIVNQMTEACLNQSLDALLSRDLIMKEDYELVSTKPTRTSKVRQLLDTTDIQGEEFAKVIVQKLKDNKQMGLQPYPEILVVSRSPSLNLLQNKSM

TNNI3K (human) = TNNI3K (human) (UniProt Q59H18)

Sequence of KDR (human) (P35968 whole entry, looked up): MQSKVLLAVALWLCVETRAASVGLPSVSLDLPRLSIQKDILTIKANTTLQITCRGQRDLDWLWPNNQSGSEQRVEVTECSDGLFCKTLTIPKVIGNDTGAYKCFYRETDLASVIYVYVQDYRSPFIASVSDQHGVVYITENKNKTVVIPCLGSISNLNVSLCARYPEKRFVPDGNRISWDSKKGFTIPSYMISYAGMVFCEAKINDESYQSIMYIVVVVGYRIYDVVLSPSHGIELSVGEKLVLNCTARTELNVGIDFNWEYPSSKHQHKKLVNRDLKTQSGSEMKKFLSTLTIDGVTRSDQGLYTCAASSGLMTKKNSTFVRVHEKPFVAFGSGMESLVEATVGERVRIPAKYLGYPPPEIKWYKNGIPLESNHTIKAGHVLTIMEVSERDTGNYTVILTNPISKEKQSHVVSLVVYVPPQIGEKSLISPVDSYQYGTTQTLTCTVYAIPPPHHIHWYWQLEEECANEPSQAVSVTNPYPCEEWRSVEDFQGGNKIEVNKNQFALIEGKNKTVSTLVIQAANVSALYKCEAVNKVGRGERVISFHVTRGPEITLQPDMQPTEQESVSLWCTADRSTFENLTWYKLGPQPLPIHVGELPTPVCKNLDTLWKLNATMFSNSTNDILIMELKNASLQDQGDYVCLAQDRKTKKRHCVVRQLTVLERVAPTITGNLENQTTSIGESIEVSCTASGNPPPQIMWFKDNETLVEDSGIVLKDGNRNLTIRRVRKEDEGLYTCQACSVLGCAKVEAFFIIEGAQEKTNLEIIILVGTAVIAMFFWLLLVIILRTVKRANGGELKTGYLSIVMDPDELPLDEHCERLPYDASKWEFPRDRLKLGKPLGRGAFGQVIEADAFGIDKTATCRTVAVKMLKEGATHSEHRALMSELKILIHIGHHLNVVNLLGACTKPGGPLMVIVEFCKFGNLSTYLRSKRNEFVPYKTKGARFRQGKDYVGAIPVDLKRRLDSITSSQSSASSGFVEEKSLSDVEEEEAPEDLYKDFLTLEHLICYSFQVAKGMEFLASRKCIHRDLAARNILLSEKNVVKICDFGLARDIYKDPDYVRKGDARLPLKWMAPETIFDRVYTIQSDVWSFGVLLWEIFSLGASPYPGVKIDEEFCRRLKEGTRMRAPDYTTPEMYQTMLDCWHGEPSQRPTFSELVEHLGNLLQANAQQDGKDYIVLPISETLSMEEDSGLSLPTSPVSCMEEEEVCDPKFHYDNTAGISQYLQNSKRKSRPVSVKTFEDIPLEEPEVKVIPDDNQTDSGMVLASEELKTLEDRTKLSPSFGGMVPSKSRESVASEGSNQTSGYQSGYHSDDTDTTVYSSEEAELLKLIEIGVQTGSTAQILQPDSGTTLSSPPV

COC(=O)Nc1ccc(-c2nc(N3CCOCC3)c3cnn(C4CCN(C(=O)OC)CC4)c3n2)cc1
kinase still bound, per cent of control (MAPK8 (human)): 100%
kinase still bound, per cent of control (KDR (human)): 100%
kinase still bound, per cent of control (MAPK9 (human)): 100%
kinase still bound, per cent of control (AKT1 (human)): 82%
kinase still bound, per cent of control (IKBKE (human)): 81%
kinase still bound, per cent of control (HIPK2 (human)): 65%
kinase still bound, per cent of control (CLK4 (human)): 94%
kinase still bound, per cent of control (MATK (human)): 100%
kinase still bound, per cent of control (BMX (human)): 94%
kinase still bound, per cent of control [1]: 100%
kinase still bound, per cent of control (DYRK1A (human)): 88%
kinase still bound, per cent of control (MAP2K6 (human)): 90%
kinase still bound, per cent of control (CAMK1D (human)): 85%
kinase still bound, per cent of control (MAP3K13 (human)): 100%
per cent of control (CDKL2 (human)): 94%
kinase still bound, per cent of control (ULK3 (human)): 88%
kinase still bound, per cent of control (RIPK4 (human)): 90%
kinase still bound, per cent of control [2]: 91%
kinase still bound, per cent of control (LCK (human)): 88%
kinase still bound, per cent of control [3]: 88%
kinase still bound, per cent of control (TLK1 (human)): 91%
kinase still bound, per cent of control (MAP3K15 (human)): 96%
kinase still bound, per cent of control (TEC (human)): 96%
kinase still bound, per cent of control (STK17B (human)): 75%
kinase still bound, per cent of control (SRC (human)): 95%
kinase still bound, per cent of control (RPS6KA4 KD2 (human)): 88%
kinase still bound, per cent of control [4]: 73%
kinase still bound, per cent of control [5]: 6.8%
kinase still bound, per cent of control (PRKCE (human)): 94%
kinase still bound, per cent of control (PLK1 (human)): 90%
kinase still bound, per cent of control (MLTK (human)): 97%
kinase still bound, per cent of control (BLK (human)): 100%
kinase still bound, per cent of control [6]: 12%
kinase still bound, per cent of control (FLT4 (human)): 92%
kinase still bound, per cent of control (RPS6KA6 KD1 (human)): 86%
kinase still bound, per cent of control (ROS1 (human)): 76%
kinase still bound, per cent of control (FGFR4 (human)): 100%
kinase still bound, per cent of control (STK32B (human)): 100%
kinase still bound, per cent of control (BTK (human)): 99%
kinase still bound, per cent of control (RIPK2 (human)): 65%
kinase still bound, per cent of control (TNNI3K (human)): 100%
